IC50 data for 19 molecules are collected here from patent US10556900B2, “TrkA kinase inhibitors, compositions and methods thereof” (Merck Sharp & Dohme Corp., priority 2015, dated 2020).

This assay deals with human TrkA receptor (Homo sapiens (Human), UniProt P04629). Put plainly: TrkA functional activity, DiscoverX PathHunter assay (NGF-stimulated U2OS cells). Format: cell-based. As to conditions: U2OS cells expressing human TrkA-Prolink, Shc1-EA and p75NTR; compound 1 h, then NGF (~80% of maximal response) 3 h; luminescence. As to the method: TrkA functional activity was measured using a DiscoverX PathHunter assay. In this assay, U2OS cells express the human TrkA receptor as a fusion with the weakly complementing fragment of B-galactosidase, which DiscoverX calls “Prolink (PK)”; additionally, Shc1 is fused with a larger fragment, which is called “Enzyme Acceptor (EA)”. Activation of the TrkA receptor, upon NGF addition, results in the kinase domain being phosphorylated, resulting in subsequent recruitment of Shc1-EA protein. That recruitment results in an active B-galactosidase enzyme that is detected by addition of a chemiluminescent substrate. The human p75^NTR protein was also expressed as a co-receptor for NGF.
human TrkA receptor, sequence (P04629 33-796): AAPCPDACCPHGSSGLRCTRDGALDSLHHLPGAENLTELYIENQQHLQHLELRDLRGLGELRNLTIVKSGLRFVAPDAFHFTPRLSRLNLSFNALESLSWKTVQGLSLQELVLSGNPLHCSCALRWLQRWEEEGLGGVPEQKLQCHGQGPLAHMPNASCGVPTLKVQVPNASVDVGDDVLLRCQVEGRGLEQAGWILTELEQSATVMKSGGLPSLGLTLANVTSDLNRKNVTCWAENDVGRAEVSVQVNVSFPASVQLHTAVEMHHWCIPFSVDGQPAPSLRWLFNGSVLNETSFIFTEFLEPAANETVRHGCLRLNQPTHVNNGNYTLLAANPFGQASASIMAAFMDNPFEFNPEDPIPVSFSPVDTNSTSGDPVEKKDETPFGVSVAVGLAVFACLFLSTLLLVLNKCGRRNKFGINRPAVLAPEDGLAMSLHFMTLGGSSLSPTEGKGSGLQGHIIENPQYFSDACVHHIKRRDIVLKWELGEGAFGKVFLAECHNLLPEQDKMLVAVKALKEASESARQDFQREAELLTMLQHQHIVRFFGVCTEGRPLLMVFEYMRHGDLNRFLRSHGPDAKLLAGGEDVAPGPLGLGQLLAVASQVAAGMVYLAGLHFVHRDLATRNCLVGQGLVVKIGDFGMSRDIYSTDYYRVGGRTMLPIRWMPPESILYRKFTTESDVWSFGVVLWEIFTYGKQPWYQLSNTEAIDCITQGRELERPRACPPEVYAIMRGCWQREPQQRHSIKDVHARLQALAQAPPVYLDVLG
All reagents were purchased from DiscoverX, except for the receptor agonists (NGF, BDNF, NT3) which were purchased from Peprotech. Cells were expanded and frozen into cryovials, and stored in the vapor phase of liquid nitrogen, and thawed immediately before use. Thawed cells were added to a 384-well plate at 7500 cells/well, and allowed to incubate overnight. Compound at various concentrations was added the following morning and allowed to incubate on cells for 1 h. Then, NGF was added at a concentration sufficient to elicit ˜80% of a maximal response and allowed to incubate for 3 h at ambient temperature. DiscoverX PathHunter detection reagent was then added and the plate was further incubated for 1 h in the dark. The plate was then read via luminescence on the Perkin Elmer Envision.
For the molecule `CC(O)c1nc2c(NC(=O)c3ccc(C(F)(F)F)c(-c4ccn(C)n4)c3)c(-c3ccccc3)ccc2s1` (racemic) [Compound 6, (R and S)—N-(2-(1-Hydroxyethyl)-5-phenylbenzo[d]thiazol-4-yl)-3-(1-methyl-1H-pyrazol-3-yl)-4-(trifluoromethyl)benzamide], the IC50 was found to be 11 nM.
The result for `CC(O)c1n[nH]c2c(NC(=O)c3cc(-c4ncccn4)c(C(F)(F)F)cc3F)c(-c3ccccc3)ccc12` (racemic) [Compound 46, (R) and (S)-2-Fluoro-N-(3-(1-hydroxyethyl)-6-phenyl-1H-indazol-7-yl)-5-(pyrimidin-2-yl)-4-(trifluoromethyl)benzamide] reads 2.9 nM; that for `CC(O)c1n[nH]c2c(NC(=O)c3cc(-c4ncccn4)c(C(F)(F)F)cc3F)c(-c3ccccc3)ccc12` (racemic) [Compound 47, (R) and (S)-2-Fluoro-N-(3-(1-hydroxyethyl)-6-phenyl-1H-indazol-7-yl)-5-(pyrimidin-2-yl)-4-(trifluoromethyl)benzamide], 4.5 nM.
The result for `CC(O)c1cnc2c(NC(=O)c3cc(-c4ncccn4)c(C(F)(F)F)cc3F)c(-c3ccccc3)ncn12` (racemic) [Compound 71, (R and S)-2-Fluoro-N-(3-(1-hydroxyethyl)-7-phenylimidazo[1,2-c]pyrimidin-8-yl)-5-(pyrimidin-2-yl)-4-(trifluoromethyl)benzamide] reads 6.6 nM.
As for `CC(O)c1nc2c(NC(=O)c3ccc(C(F)(F)F)c(-c4ccn(C)n4)c3)c(-c3ccccc3)ccc2s1` (single isomer, unassigned) [Compound 5, (R and S)—N-(2-(1-Hydroxyethyl)-5-phenylbenzo[d]thiazol-4-yl)-3-(1-methyl-1H-pyrazol-3-yl)-4-(trifluoromethyl)benzamide], the IC50 is 13 nM.
The result for `CC(O)c1cnc2c(NC(=O)c3cc(-c4ncccn4)c(C(F)(F)F)cc3F)c(-c3ccccc3)ccn12` (single isomer, unassigned) [Compound 9, (R) or (S)-2-Fluoro-N-(3-(1-hydroxyethyl)-7-phenylimidazo[1,2-a]pyridin-8-yl)-5-(pyrimidin-2-yl)-4-(trifluoromethyl)benzamide] reads 3.3 nM.
The molecule `CC(O)c1cnc2c(NC(=O)c3cc(-c4ncccn4)c(C(F)(F)F)cc3F)c(-c3ccccc3)ccn12` (single isomer, unassigned) [Compound 10, (R) or (S)-2-Fluoro-N-(3-(1-hydroxyethyl)-7-phenylimidazo[1,2-a]pyridin-8-yl)-5-(pyrimidin-2-yl)-4-(trifluoromethyl)benzamide] registered an IC50 of 1.1 nM.
Under `CC(O)c1cnc2c(NC(=O)c3ccc(C(F)(F)F)c(-c4ccn(C)n4)c3)c(-c3ccccc3)ccn12` (single isomer, unassigned) [Compound 14, (R) or (S)-N-[3-(1-hydroxyethyl)-7-phenylimidazo[1,2-a]pyridin-8-yl]-3-(1-methyl-1H-pyrazol-3-yl)-4-(trifluoromethyl)benzamide] stands 5.1 nM; under `CC(O)c1cnc2c(NC(=O)c3ccc(C(F)(F)F)c(-c4ccn(C)n4)c3)c(-c3ccccc3)ccn12` (single isomer, unassigned) [Compound 15, (R) or (S)-N-[3-(1-hydroxyethyl)-7-phenylimidazo[1,2-a]pyridin-8-yl]-3-(1-methyl-1H-pyrazol-3-yl)-4-(trifluoromethyl)benzamide], 2.2 nM.
The result for `CC(O)c1cnc2c(NC(=O)c3cc(-c4ccn(C)n4)c(C(F)(F)F)cc3F)c(-c3ccccc3)ccn12` (single isomer, unassigned) [Compound 25, (R) or (S)-2-fluoro-N-[3-(1-hydroxyethyl)-7-phenylimidazo[1,2-a]pyridin-8-yl]-5-(1-methyl-1H-pyrazol-3-yl)-4-(trifluoromethyl)benzamide] reads 0.81 nM.
The molecule `CC(O)c1cnc2c(NC(=O)c3cc(-c4ccn(C)n4)c(C(F)(F)F)cc3F)c(-c3ccccc3)ccn12` (single isomer, unassigned) [Compound 26, (R) or (S)-2-fluoro-N-[3-(1-hydroxyethyl)-7-phenylimidazo[1,2-a]pyridin-8-yl]-5-(1-methyl-1H-pyrazol-3-yl)-4-(trifluoromethyl)benzamide] gave an IC50 of 0.31 nM.
Under `CC(O)c1cnc2c(NC(=O)c3cc(-c4cc[nH]n4)c(C(F)(F)F)cc3F)c(-c3ccccc3)ccn12` (single isomer, unassigned) [Compound 27, (R) or (S)-2-fluoro-N-[3-(1-hydroxyethyl)-7-phenylimidazo[1,2-a]pyridin-8-yl]-5-(1H-pyrazol-3-yl)-4-(trifluoromethyl)benzamide] stands 3.5 nM; under `CC(O)c1cnc2c(NC(=O)c3cc(-c4cc[nH]n4)c(C(F)(F)F)cc3F)c(-c3ccccc3)ccn12` (single isomer, unassigned) [Compound 28, (R) or (S)-2-fluoro-N-[3-(1-hydroxyethyl)-7-phenylimidazo[1,2-a]pyridin-8-yl]-5-(1H-pyrazol-3-yl)-4-(trifluoromethyl)benzamide], 1.8 nM; under `CC(O)c1cnc2c(NC(=O)c3cc(-c4ccccn4)c(C(F)(F)F)cc3F)c(-c3ccccc3)ccn12` (single isomer, unassigned) [Compound 29, (R) or (S)-2-fluoro-N-[3-(1-hydroxyethyl)-7-phenylimidazo[1,2-a]pyridin-8-yl]-5-pyridin-2-yl-4-(trifluoromethyl)benzamide], 1.7 nM.
The result for `CC(O)c1cnc2c(NC(=O)c3cc(-c4ccccn4)c(C(F)(F)F)cc3F)c(-c3ccccc3)ccn12` (single isomer, unassigned) [Compound 30, (R) or (S)-2-fluoro-N-[3-(1-hydroxyethyl)-7-phenylimidazo[1,2-a]pyridin-8-yl]-5-pyridin-2-yl-4-(trifluoromethyl)benzamide] reads 0.74 nM; that for `CC(O)c1n[nH]c2c(NC(=O)c3ccc(C(F)(F)F)c(-c4ccn(C)n4)c3)c(-c3ccccc3)ccc12` (single isomer, unassigned) [Compound 48, (R) or (S)-N-[3-(1-hydroxyethyl)-6-phenyl-1H-indazol-7-yl]-3-(1-methyl-1H-pyrazol-3-yl)-4-(trifluoromethyl)benzamide], 0.9 nM; that for `CC(O)c1n[nH]c2c(NC(=O)c3ccc(C(F)(F)F)c(-c4ccn(C)n4)c3)c(-c3ccccc3)ccc12` (single isomer, unassigned) [Compound 49, (R) or (S)-N-[3-(1-hydroxyethyl)-6-phenyl-1H-indazol-7-yl]-3-(1-methyl-1H-pyrazol-3-yl)-4-(trifluoromethyl)benzamide], 2 nM.
The result for `CC(O)c1cnc2c(NC(=O)c3cc(-c4ncccn4)c(C(F)(F)F)cc3F)c(-c3ccc(F)cc3)ccn12` (single isomer, unassigned) [Compound 52, (R) or (S)-2-fluoro-N-[7-(4-fluorophenyl)-3-(1-hydroxyethyl)imidazo[1,2-a]pyridin-8-yl]-5-pyrimidin-2-yl-4-(trifluoromethyl)benzamide] reads 4.9 nM.
In turn, `CC(O)c1cnc2c(NC(=O)c3cc(-c4ncccn4)c(C(F)(F)F)cc3F)c(-c3ccc(F)cc3)ccn12` (single isomer, unassigned) [Compound 53, (R) or (S)-2-fluoro-N-[7-(4-fluorophenyl)-3-(1-hydroxyethyl)imidazo[1,2-a]pyridin-8-yl]-5-pyrimidin-2-yl-4-(trifluoromethyl)benzamide] showed an IC50 of 29 nM.
